Source: patent publication US11744824B2, “2-amino-3-carbonyl imidazopyridine and pyrazolopyridine compounds” (1ST Biotherapeutics, Inc., priority 2020, dated 2023)

The compounds below were run against GST-tagged recombinant human RIP2 (Homo sapiens (Human), UniProt O43353) (assay: RIP2 Kinase Assay (ADP-Glo)). Conditions: in vitro kinase activity, ATP 25 μM.
Format: biochemical
Experimental: GST-tagged recombinant human RIP2 (25 ng) is incubated with 5 μL of compounds (0.5% DMSO), 5 μL of MBP (0.5 μg/μl) and 5 μL of ATP (25 μM) in buffer (40 mM Tris, 7.5; 20 mM MgCl2; 0.1 mg/ml BSA; 50 μM DTT). The assay was started by incubating the reaction mixture in a 96-well plate at 30° C. for 60 minutes. After the incubation, 25 μL ADP-Glo reagent was added, and the reaction was incubated at 30° C. for 40 minutes to stop the reaction and degrade residual ATP. The ADP product was then converted to ATP by adding 50 μL per well of detection reagent. Luminescence was detected after 30 minutes room temperature incubation with the Molecular device I3X plate reader. The IC50 values were calculated from a series of percent inhibition values determined at a range of inhibitor concentration using software routines as implemented in the GraphPad Prism 7 software and SigmaPlot 13.0.

GST-tagged recombinant human RIP2, sequence (O43353 whole entry): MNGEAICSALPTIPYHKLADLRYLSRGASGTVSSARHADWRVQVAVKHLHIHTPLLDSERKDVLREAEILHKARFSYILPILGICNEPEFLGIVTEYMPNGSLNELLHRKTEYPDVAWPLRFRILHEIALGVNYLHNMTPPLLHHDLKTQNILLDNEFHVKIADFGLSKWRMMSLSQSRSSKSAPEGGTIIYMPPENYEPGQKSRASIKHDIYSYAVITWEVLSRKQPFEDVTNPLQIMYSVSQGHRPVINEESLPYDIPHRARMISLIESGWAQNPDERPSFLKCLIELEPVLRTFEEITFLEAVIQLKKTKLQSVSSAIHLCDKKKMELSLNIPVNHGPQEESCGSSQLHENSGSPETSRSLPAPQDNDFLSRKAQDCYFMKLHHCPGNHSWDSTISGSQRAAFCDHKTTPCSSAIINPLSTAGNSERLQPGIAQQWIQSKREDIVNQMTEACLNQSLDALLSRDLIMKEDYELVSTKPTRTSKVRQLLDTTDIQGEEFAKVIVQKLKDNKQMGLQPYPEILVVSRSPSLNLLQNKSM

IC50	Structure (SMILES)
1 to 100 nM	Cc1ccc2[nH]ncc2c1-c1ccc2nc(N)c(C(=O)C3CC3)n2c1 [Example 3]
1 to 100 nM	Nc1nc2ccc(-c3cnc4[nH]ccc4c3)cn2c1C(=O)[C@@H]1C[C@@H]1F [Example 32]
1 to 100 nM	Nc1nc2ccc(-c3cnc4[nH]ccc4c3Cl)cn2c1C(=O)[C@@H]1C[C@@H]1F [Example 41]
1 to 100 nM	Nc1nc2ccc(-c3cccc(F)c3Cl)cn2c1C(=O)[C@@H]1C[C@@H]1F [Example 44]
101 to 500 nM	Nc1nc2c(F)cc(-c3ccc4[nH]ccc4c3)cn2c1C(=O)[C@@H]1C[C@@H]1F [Example 92]
> 1000 nM	Cc1c(F)cccc1-c1ccc2nc(NCCN)c(C(=O)[C@@H]3C[C@@H]3F)n2c1 [Example 93]
101 to 500 nM	Nc1nc2c(F)cc(-c3cccc4[nH]ccc34)cn2c1C(=O)[C@@H]1C[C@@H]1F [Example 96]
1 to 100 nM	Cc1c(-c2cc(F)c3nc(N)c(C(=O)[C@@H]4C[C@@H]4F)n3c2)cnc2[nH]ccc12 [Example 97]
> 1000 nM	CC(C)(C)OC(=O)n1cc(-c2ccc3nc(N)c(C(=O)[C@@H]4C[C@@H]4F)n3c2)c2ccccc21 [Example 98]
101 to 500 nM	Cc1c(F)cccc1-c1cc(F)c2nc(N)c(C(=O)[C@@H]3C[C@@H]3F)n2c1 [Example 99, (2-amino-8-fluoro-6-(3-fluoro-2-methylphenyl)imidazo[1,2-a]pyridin-3-yl)((1S,2S)-2-fluorocyclopropyl)methanone]
1 to 100 nM	Nc1nc2ccc(-c3ccc4[nH]cnc4c3)cn2c1C(=O)[C@@H]1C[C@@H]1F [Example 102]
101 to 500 nM	Cc1c(-c2ccc3nc(N)c(C(=O)[C@@H]4C[C@@H]4F)n3c2)ccc2[nH]cnc12 [Example 103]
101 to 500 nM	Cc1c(-c2ccc3nc(N)c(C(=O)[C@@H]4C[C@@H]4F)n3c2)cnc2c1ccn2C [Example 106]
> 1000 nM	Cc1c(F)cccc1-c1ccc2nc(N)c(C(=O)N(C)C3CC3)n2c1 [Example 107, 2-amino-N-cyclopropyl-6-(3-fluoro-2-methylphenyl)-N-methylimidazo[1,2-a]pyridine-3-carboxamide]
101 to 500 nM	Cc1c(F)cccc1-c1ccc2nc(N)c(C(=O)N[C@@H]3C[C@@H]3F)n2c1 [Example 108]
101 to 500 nM	Cc1c(F)cccc1-c1ccc2nc(N)c(C(=O)NC3CC3)n2c1 [Example 109]
101 to 500 nM	Nc1nc2ccc(-c3c[nH]c4ccc(Cl)cc34)cn2c1C(=O)[C@@H]1C[C@@H]1F [Example 111]
> 1000 nM	CC(=O)NNC(=O)c1c(N)nc2ccc(-c3cccc(F)c3C)cn12 [Example 112, N′-acetyl-2-amino-6-(3-fluoro-2-methylphenyl)imidazo[1,2-a]pyridine-3-carbohydrazide]
101 to 500 nM	Nc1nc2ccc(-c3cnc4ccccc4c3)cn2c1C(=O)[C@@H]1C[C@@H]1F [Example 116]
1 to 100 nM	Nc1nc2ccc(-c3cncc4ccccc34)cn2c1C(=O)[C@@H]1C[C@@H]1F [Example 117]

IC50	Structure (SMILES)
1 to 100 nM	Cc1ccccc1-c1ccc2nc(N)c(C(=O)[C@@H]3C[C@@H]3F)n2c1 [Example 118]
101 to 500 nM	Nc1nc2ccc(-c3ccccc3OCCF)cn2c1C(=O)[C@@H]1C[C@@H]1F [Example 119]
101 to 500 nM	Nc1nc2ccc(-c3cccc(F)c3OCCF)cn2c1C(=O)[C@@H]1C[C@@H]1F [Example 120]
> 1000 nM	CC(C)(C)OC(=O)n1cccc1-c1ccc2nc(N)c(C(=O)[C@@H]3C[C@@H]3F)n2c1 [Example 121]
> 1000 nM	CC(C)(C)OC(=O)n1ccc(-c2ccc3nc(N)c(C(=O)[C@@H]4C[C@@H]4F)n3c2)c1 [Example 122]
101 to 500 nM	Nc1nc2ccc(-c3cccc(F)c3CCCO)cn2c1C(=O)[C@@H]1C[C@@H]1F [Example 123]
> 1000 nM	Nc1nc2ccc(-c3ccc[nH]3)cn2c1C(=O)[C@@H]1C[C@@H]1F [Example 124]
> 1000 nM	Nc1nc2ccc(-c3cc[nH]c3)cn2c1C(=O)[C@@H]1C[C@@H]1F [Example 125]
> 1000 nM	Nc1nc2ccc(-c3cccc(F)c3CCO)cn2c1C(=O)[C@@H]1C[C@@H]1F [Example 126]
> 1000 nM	Nc1nc2ccc(-c3cccc(F)c3CO)cn2c1C(=O)[C@@H]1C[C@@H]1F [Example 127]
101 to 500 nM	Nc1nc2ccc(-c3ccccc3CCO)cn2c1C(=O)[C@@H]1C[C@@H]1F [Example 128]
101 to 500 nM	Nc1nc2ccc(-c3ccccc3CCCO)cn2c1C(=O)[C@@H]1C[C@@H]1F [Example 129]
101 to 500 nM	Nc1nc2ccc(-c3ccccc3CCF)cn2c1C(=O)[C@@H]1C[C@@H]1F [Example 130]
101 to 500 nM	Nc1nc2ccc(-c3cccc(F)c3CCCF)cn2c1C(=O)[C@@H]1C[C@@H]1F [Example 131]
101 to 500 nM	Nc1nc2ccc(-c3ccccc3CCCF)cn2c1C(=O)[C@@H]1C[C@@H]1F [Example 132]
1 to 100 nM	Cc1c(N)cc(F)cc1-c1ccc2nc(N)c(C(=O)[C@@H]3C[C@@H]3F)n2c1 [Example 133]
1 to 100 nM	Cc1cc(-c2ccc3nc(N)c(C(=O)[C@@H]4C[C@@H]4F)n3c2)c(F)cc1N [Example 134]
101 to 500 nM	COC(=O)c1c(N)nc2ccc(-c3cccc(F)c3C)cn12 [Example 135, methyl 2-amino-6-(3-fluoro-2-methylphenyl)imidazo[1,2-a]pyridine-3-carboxylate]
> 1000 nM	Nc1nc2ccc(-c3cccc(F)c3CCF)cn2c1C(=O)[C@@H]1C[C@@H]1F [Example 136]
> 1000 nM	CC(C)(C)OC(=O)NCc1ccccc1-c1ccc2nc(N)c(C(=O)[C@@H]3C[C@@H]3F)n2c1 [Example 137]

IC50	Structure (SMILES)
> 1000 nM	NCc1ccccc1-c1ccc2nc(N)c(C(=O)[C@@H]3C[C@@H]3F)n2c1 [Example 138]
> 1000 nM	Nc1nc2ccc(-c3ccccc3CCF)cn2c1C(=O)[C@@H]1C[C@H]1F [Example 139]
> 1000 nM	Nc1nc2ccc(-c3ccccc3CCF)cn2c1C(=O)[C@H]1C[C@@H]1F [Example 140]
1 to 100 nM	Cc1ccc(N)cc1-c1ccc2nc(N)c(C(=O)[C@@H]3C[C@@H]3F)n2c1 [Example 142]
> 1000 nM	Cc1cccc(N)c1-c1ccc2nc(N)c(C(=O)[C@@H]3C[C@@H]3F)n2c1 [Example 143]
101 to 500 nM	CO/C=C/c1c(F)cccc1-c1ccc2nc(N)c(C(=O)[C@@H]3C[C@@H]3F)n2c1 [Example 144]
1 to 100 nM	C=Cc1c(F)cccc1-c1ccc2nc(N)c(C(=O)[C@@H]3C[C@@H]3F)n2c1 [Example 145]
101 to 500 nM	CNc1cc(F)cc(-c2ccc3nc(N)c(C(=O)[C@@H]4C[C@@H]4F)n3c2)c1C [Example 146]
101 to 500 nM	Cc1c(-c2ccc3nc(N)c(C(=O)[C@@H]4C[C@@H]4F)n3c2)cc(F)cc1N(C)C [Example 147]
101 to 500 nM	Cc1c(F)cccc1Nc1ccc2nc(N)c(C(=O)[C@@H]3C[C@@H]3F)n2c1 [Example 148, (2-amino-6-((3-fluoro-2-methylphenyl)amino)imidazo[1,2-a]pyridin-3-yl)((1S,2S)-2-fluorocyclopropyl)methanone]
> 1000 nM	CN(C)c1c(F)c(Cl)c(-c2ccc3nc(N)c(C(=O)NC4CC4)n3c2)c2cn[nH]c12 [Example 149]
> 1000 nM	CSc1c(F)c(Cl)c(-c2ccc3nc(N)c(C(=O)O[C@@H]4COC[C@H]4C)n3c2)c2cn[nH]c12 [Example 151, (3S,4R)-4-methyltetrahydrofuran-3-yl 2-amino-6-(5-chloro-6-fluoro-7-(methylthio)-1H-indazol-4-yl)imidazo[1,2-a]pyridine-3-carboxylate]
1 to 100 nM	Cc1c(F)cc(N)cc1-c1ccc2nc(N)c(C(=O)[C@@H]3C[C@@H]3F)n2c1 [Example 155]
1 to 100 nM	Nc1nc2ccc(-c3ccc4[nH]ccc4c3)cn2c1C(=O)[C@H]1C[C@H]1F [Example 156]
1 to 100 nM	Nc1nc2ccc(-c3ccc4[nH]ccc4c3)cn2c1C(=O)[C@H]1C[C@@H]1F [Example 157]
1 to 100 nM	Nc1nc2ccc(-c3ccc4[nH]ccc4c3)cn2c1C(=O)[C@@H]1C[C@H]1F [Example 158]
1 to 100 nM	Cc1c(-c2ccc3nc(N)c(C(=O)[C@H]4C[C@H]4F)n3c2)ccc2[nH]ccc12 [Example 159]
101 to 500 nM	Cc1c(F)cccc1Oc1ccc2nc(N)c(C(=O)[C@@H]3C[C@@H]3F)n2c1 [Example 160]
1 to 100 nM	Cc1c(-c2ccc3nc(N)c(C(=O)[C@H]4C[C@@H]4F)n3c2)ccc2[nH]ccc12 [Example 161]
1 to 100 nM	Cc1c(-c2ccc3nc(N)c(C(=O)[C@@H]4C[C@H]4F)n3c2)ccc2[nH]ccc12 [Example 162]

Structure (SMILES)	IC50
Nc1nc2ccc(-c3cnc4[nH]ccc4c3)cn2c1C(=O)C1CCNC1 (centres unmarked) [Example 91]	101 to 500 nM

Each compound was assayed on IL-6 secretion in BV-2 mouse microglia cells (assay: IL-6 Secretion in BV-2 Cell (L18-MDP stimulated, ELISA)). Conditions: BV-2 cells, 10 μg/ml L18-MDP, 24 hr.
Format: cell-based
Experimental: IL-6 Secretion in BV-2 Cell
BV-2 mouse microglia cells were kindly provided from Dr. Bae in Korea Institute of Science and Technology (KIST). BV-2 cells were thawed and suspended in Dulbecco's modified eagle medium (DMEM) supplemented with 10% fetal bovine serum (FBS) and 1% Penicillin/Streptomycin. Cells were seeded into 96 well plates at 2×10^4 cells/well and allowed to attach for 24 hr. On the day of the experiment, various concentration of FB compounds was treated, and cells were stimulated with 10 μg/ml L18-MDP. After 24 hr incubation, supernatant was collected for cytokine assay.
Absorbance at 450 nm was measured using SpectraMax i3X microplate reader (Molecular Device). Values of media-only wells were subtracted and % inhibition for each compound concentration relative to the DMSO/L18-MDP-treated controls (100%) was calculated. The IC50 values were calculated from a series of percent activity values using software as implemented in the GraphPad Prism 7 software and SigmaPlot 13.0.

IC50	Structure (SMILES)
> 1000 nM	Cc1ccc2[nH]ncc2c1-c1ccc2nc(N)c(C(=O)C3CC3)n2c1 [Example 3]
101 to 500 nM	Nc1nc2ccc(-c3cnc4[nH]ccc4c3)cn2c1C(=O)[C@@H]1C[C@@H]1F [Example 32]
101 to 500 nM	Nc1nc2ccc(-c3cnc4[nH]ccc4c3Cl)cn2c1C(=O)[C@@H]1C[C@@H]1F [Example 41]
501 to 1000 nM	Nc1nc2ccc(-c3cccc(F)c3Cl)cn2c1C(=O)[C@@H]1C[C@@H]1F [Example 44]
